Experimental data from patent US20230355612A1 (SHANGHAI BOCIMED PHARMACEUTICAL CO., LTD., priority 2020, published 2023).
In brackets after ≈: the same amount, converted by molar mass. Where a name gives a salt, the structure may show the parent alone. Read-outs that look alike come from different tables or passages of the source.

What was measured:
[1] = Related substances stability of solids under stress conditions (HPLC); assay type: physicochemical; details: for Total related substances: left to stand under these conditions for 10 days
Description: (§1) Unless otherwise indicated, the starting materials and reagents in the examples below are either commercially available or prepared by one skilled in the art according to methods known in the art. The salt compounds of the examples were tested by nuclear magnetic resonance (^1H-NMR), X-ray powder diffraction (XRPD), differential scanning calorimetry (DSC), thermogravimetric analysis (TGA), hot-stage polarized light microscopy (PLM) and high performance liquid chromatography (HPLC), and the test parameters are as follows: • (1) The ^1H-NMR measurements were taken on a Bruker Advance III500M nuclear magnetic resonance spectrometer at a frequency of […] with deuterated DMSO as the solvent. • (2) The DSC measurements were taken on a sealed pan device in TA Instruments model Q2000: samples (about 1-2 mg) were weighed in aluminum pans and transferred to the instrument for measurement. The test parameters are as follows: the instrument was equilibrated at 30° C. and heated to 300° C. at a rate of 10° C./min, data was collected, and the experiments were conducted in a nitrogen atmosphere. • (3) The TGA measurements were taken on a TA Instruments model Q500 device: samples (about 2-5 mg) were weighed in aluminum pans and transferred to the instrument for measurement. The test parameters are as follows: the instrument was heated to 350° C. at a rate of 10° C./min, data was collected, and the experiments were conducted in a nitrogen atmosphere. • (4) The XRPD measurements were taken on a Bruker model D8 Advance X-ray powder diffractometer using a round zero background single crystal silicon sample stage. The scan parameters are as follows: voltage, 40 kv; current, 40 mA; scan range, 3-45°; scan increment, 0.02°; scan mode, continuous scan. • (5) The PLM analyses were performed under a model DYP990/TPH350 hot stage polarizing microscope from Shanghai Dian Ying Optical Instruments: a small amount of sample was dispersed in a glass slide and photographed using an eyepiece lens at a magnification of 10× and an objective lens at a magnification of 5-40×. • (6) Methods of measuring HPLC content and detecting related substances: […]

[2] = In vitro dissolution simulation experiment, phosphate buffer pH 7.4; assay type: physicochemical; details: pH 7.4 phosphate buffer, 37° C.
Description: The mixtures were shaken at 37° C.

physchem = details: for solubility at 24 h: 37 °C, thermodynamic from solid
Description: The mixtures were shaken at 37° C. for 24 h and filtered through 0.45 μm aqueous-phase filter membranes. The filtrates were collected and the solubility was determined by high performance liquid chromatography. pH3, pH4, pH5 and pH6 represent acetate buffer solutions, and pH7, pH7.4, pH8 and pH9 represent phosphate buffer solutions.

[3] = Pharmacokinetic experiment in rats (plasma cariprazine, LC-MS/MS); assay type: in vivo, SD rats
Description: In the whole experiment, the animals from the intramuscular injection group were given ad libitum access to food and water, and those from the oral intragastrical group were fasted overnight before administration and given access to food 4 h after administration.
Plasma sample collection: about 150 μL of blood was collected from the jugular vein (whole blood was centrifuged within 30 min to isolate plasma) and placed in a tube containing anticoagulant EDTA-K2, and after treatment, plasma was stored in a freezer at −70° C. before use.
Pretreatment of plasma sample: to 30 μL of plasma sample was added 200 μL of internal standard solution (40 ng/mL Glipizide acetonitrile solution); the mixture was vortexed for 1 min and centrifuged at 5800 rpm at 4° C. for 10 min; 100 μL of supernatant was transferred to a new plate and 1 μL of solution was taken for LC-MS/MS analysis.

[4] = Crystalline form stability of solids under stress conditions (XRPD); assay type: physicochemical
Description: as §1

[5] = left to stand under these conditions for 10 days

Compound | Concentration ([2]; 1 (h)) [ng/mL] | Concentration ([2]; 3.5 (h)) [ng/mL] | Concentration ([2]; 5 (h)) [ng/mL] | Concentration ([2]; 7 (h)) [ng/mL] | Concentration ([2]; 24 (h)) [ng/mL] | Total related substances [1] | other results
CN(C)C(=O)NC1CCC(CCN2CCN(c3cccc(Cl)c3Cl)CC2)CC1 (centres unmarked) [Amorphous cariprazine embonate, cariprazine embonate] | 11940 | 10300 | 9580 | 7080 | 9900 |  | Increase in impurities ([1]; high-temperature conditions): bigger increase in impurities
CN(C)C(=O)N[C@H]1CC[C@H](CCN2CCN(c3cccc(Cl)c3Cl)CC2)CC1 [Cariprazine] |  |  |  |  |  |  | solubility at 24 h (physchem; pH 8, aqueous buffer): 1 µg/mL (≈ 2.34 µM); solubility at 24 h (physchem; water): ~180 µg/mL (≈ 421 µM)
CN(C)C(=O)NC1CCC(CCN2CCN(c3cccc(Cl)c3Cl)CC2)CC1 (centres unmarked) [Crystalline form A of cariprazine embonate] | 1000 | 3400 | 4100 | 3900 | 2500 | remained substantially unchanged | Length of release among the crystalline forms ([3]; rats, single intramuscular injection 9 mg/kg): best length of release; Crystalline form [4, 5]: its crystalline form did not change; Crystallinity [4, 5]: did not change significantly
CN(C)C(=O)NC1CCC(CCN2CCN(c3cccc(Cl)c3Cl)CC2)CC1 (centres unmarked) [Crystalline form B of cariprazine embonate] | 5300 | 4000 | 5200 | 2200 | 1700 | remained substantially unchanged | 
CN(C)C(=O)NC1CCC(CCN2CCN(c3cccc(Cl)c3Cl)CC2)CC1 (centres unmarked) [Crystalline form G of cariprazine embonate] | 1300 | 4510 | 2280 | 1840 | 8050 | remained substantially unchanged | 
CN(C)C(=O)NC1CCC(CCN2CCN(c3cccc(Cl)c3Cl)CC2)CC1 (centres unmarked) [cariprazine embonate] |  |  |  |  |  |  | Absorption after oral administration ([3]; rat, in vivo, po, 0.3 mg/kg): fast absorption; Crystalline form ([4]; high-humidity conditions and accelerated conditions): change into crystalline form A of cariprazine embonate; Crystalline form ([4]; high-temperature conditions and illuminated conditions): its crystalline form did not change
CN(C)C(=O)N[C@H]1CC[C@H](CCN2CCN(c3cccc(Cl)c3Cl)CC2)CC1 [cariprazine hydrochloride] |  |  |  |  |  |  | solubility at 24 h (physchem; pH 3, aqueous buffer): 12300 µg/mL; solubility at 24 h (physchem; pH 4, aqueous buffer): 9770 µg/mL; solubility at 24 h (physchem; pH 5, aqueous buffer): 1080 µg/mL; solubility at 24 h (physchem; water): ~11000 µg/mL
cariprazine malate |  |  |  |  |  |  | Solubility (physchem): >1065.7 µg/mL; Solubility (physchem; pH 3): >266.4 µg/mL; Solubility (physchem; pH 5): >228.4 µg/mL; Solubility (physchem; pH 7): <304.5 µg/mL; Solubility (physchem; pH 9): <152.2 µg/mL
cariprazine succinate |  |  |  |  |  |  | Solubility (physchem): >261.2 µg/mL; Solubility (physchem; pH 3): >215.5 µg/mL; Solubility (physchem; pH 9): <215.5 µg/mL
